The record followed here is US20020169364A1, “Brainstem and limbic disorder (BALD)” (priority 2000, published 2002).

This assay in a line: Clinical use in treatment protocol of the BALD syndrome. Format: in vivo. Particulars: for clinical outcome in treatment of the BALD syndrome: patients with BALD syndrome, core treatment steps (calcium channel blocker, anti-viral/anti-fungal, chelating agent); for clinical outcome, pulmonary problems: BALD patients with pulmonary problems (restrictive lung disease). From the text: The treatment protocol consists of ruling in or out of the BALD syndrome then treatment of the core pathology of the syndrome if present. This consists of treatment of the most acute aspects of the BALD syndrome followed by more conservative treatments of the more chronic symptoms or pathology. If diagnosis progresses to brainstem or other neuron damage with significant inflammation the treatment consists of immediate inflammation reduction and stabilization of the immune system. This is followed by conservative treatments as indicated in the diagnosis of the disorder.
The treatment proceeds in steps.
Step one in the treatment of the disorder would start with drugs that are known to block calcium intake channels of neurons. […] The usual dosage can be 30 mg. three times daily more or less in the clinical judgment of the physician.
Step three in the treatment of a BALD syndrome involving viral infection to any degree is to administer anti-viral and anti-fungal drugs to the patient. […] This is a synthetic acyclic purine nucleoside analog.
This Is a synthetic broad spectrum bis-trazole antifungal agent. […] This is a synthetic trazole antifungal agent with the chemical name of itraconazole.
Step seven is to administer a chelating agent to the patient to eliminate toxic heavy metals from the system.
Azulfadine should be started for patients with irritable bowel syndrome.

Counter-ions that a name gives are not always drawn.

On to `CC(C)[C@H](N)C(=O)OCCOCn1cnc2c(=O)[nH]c(N)nc21` [Valtrex, valacyclovir hydrochloride], for which the “clinical outcome in treatment of the BALD syndrome” value (“clinical outcome in treatment” below) is on record as “clinically successful”. `O=C([O-])CN(CCN(CC(=O)[O-])CC(=O)O)CC(=O)O.[Na+].[Na+]` [EDTA, edate disodium]: the “clinical outcome in treatment” value was “Clinical success”. Consider `COc1cc(C(=O)NS(=O)(=O)c2ccccc2C)ccc1Cc1cn(C)c2ccc(NC(=O)OC3CCCC3)cc12` [Accolate, zafirlukast], for which the “clinical outcome, pulmonary problems” value is “clinically successful”. Consider `OC(Cn1cncn1)(Cn1cncn1)c1ccc(F)cc1F` [difulcan, fluconazole], for which the “clinical outcome in treatment” value was “good clinical results”. Regarding `O=C(O)c1cc(/N=N/c2ccc(S(=O)(=O)Nc3ccccn3)cc2)ccc1O` [Azulfadine, sulfasalazine], the “clinical outcome, irritable bowel syndrome” value (BALD patients with irritable bowel syndrome) is listed as “successful drug in clinical usage”. Regarding `O=C1CN=C(c2ccccc2Cl)c2cc([N+](=O)[O-])ccc2N1` [Klonapin, clonazepam], where the note is “BALD patients, anti-anxiety drug”, the “clinical outcome, anti-anxiety” value was “clinically successful”.

For the molecule `Nc1nc2c(ncn2COCCO)c(=O)[nH]1` [Acyclovir, acycloguanosine], the “clinical outcome in treatment” value was “Clinical success”. Take `CC(C)(O)c1ccccc1CC[C@@H](SCC1(CC(=O)O)CC1)c1cccc(/C=C/c2ccc3ccc(Cl)cc3n2)c1` [Singulair, sodium montelukast]: the “clinical outcome, pulmonary problems” value is reported as “Clinical success”.
